One compound from patent USRE40901E1, “Taxane derivatives and processes for the preparation thereof” (Indena S.p.A., priority 1999, dated 2009) can be followed below.

In data set [1] the test system is cell lines expressing the MDR phenotype. Briefly: overcoming resistance of MDR cell lines. The format is cell-based. The note with it: statement in words, no data.
The subject of data set [2] is cancerous cells of breast, lung, ovary, colon, prostate, kidney, pancreas. Briefly: cytotoxic and anticancer activity against cancerous cells. The format is cell-based. To be noted: statement in words, no data.

As to `CC(=O)O[C@H]1C(=O)[C@@]2(C)C([C@H](OC(=O)c3ccccc3)[C@]34OC(=O)O[C@H]3[C@H](OC(=O)[C@H](O)[C@H](CC(C)C)NC(=O)OC(C)(C)C)C(C)=C1C4(C)C)[C@]1(OC(C)=O)CO[C@@H]1C[C@H]2O` (stereo partly drawn) [Compound (I), 13-(N-Boc-β-isobutylserinyl)-14β-hydroxybaccatine V, 1,14 carbonate], in data set [1], the “overcoming the resistance of cell lines expressing the MDR phenotype” value was “capable of overcoming the resistance”. Besides, the “cytotoxic and anticancer activities” value in data set [2] is “remarkable cytotoxic and anticancer activities”.
